Test results from patent US20260027073A1, “USE OF SMALL-MOLECULE COMPOUND HAVING NAPHTHYLAMINE STRUCTURE” (HANGZHOU PHECDAMED CO., LTD., priority 2023, published 2026).

How the values were obtained:
[1] = system: Androgen-induced benign prostatic hyperplasia in rats; test: Androgen-induced benign prostatic hyperplasia; assay type: in vivo, SD rats; conditions: TJ01-013 30 mg/kg, Finasteride 10 mg/kg
Description: Androgen-induced benign prostatic hyperplasia in rats has been used in many research fields. The specific model was constructed as follows: 180 g-200 g male SD rats were given 30 mg/kg androgen intramuscularly every other day, and 15 consecutive androgen injections were given for modeling, and the experiments were divided into […], a negative control group (Sham), a model control group (Control), TJ01-013 treatment group (TJ01-013, 30 mg/kg), Finasteride treatment group (Finasteride, 10 mg/kg), and TJ01-013+Finasteride treatment group (13+F). The drug was administered at the same time as the androgen modeling, the mode of administration was by oral gavage, the volume of the administration was 10 ml/kg, the frequency of administration was daily, and the administration was ended on the 30th day, the rats were weighed and euthanized, and the prostate and urethra of the rats were taken and weighed, and the organ coefficients (weight of the prostate gland/weight of the rats) were finally calculated.

[2] = system: CUMS animal model of depression; test: CUMS depression model behavioral tests; assay type: in vivo, C57BL/6J mice; conditions: Fluoxetine 30 mg/kg
Source text: Depression, also known as depressive disorder, is characterized by significant and long-lasting depressed state of mind as the main clinical feature. The CUMS animal model of depression is a chronic unpredictable animal stress model, which simulates part of the stressor, the external material environmental stimulus, and will cause dysfunctions in the animal organism through different stress stimuli, leading to occurrence of the psychiatric disease depression. […] During this period, carefully observing the status of each mouse. • (6) Basket shaking: Placing the mice in an empty basket and shaking the basket drastically, with the criterion that the mice in the basket are unable to stand firm and sway with the shaking of the basket, for 1 hour. • (7) Olfactory stimulation: Placing anise and other spices in the mice's baskets as a means of olfactory stimulation.
The above seven experiments were conducted randomly during a week as a way to achieve unpredictability with 4 weeks of continuous stimulation.
At the end of the modeling, an open field test experiment was conducted to screen the modeled animals and group the successful modeled animals into five groups: normal group (Control), model control group (Model), positive drug treatment group (Fluoxetine), TJ0113 10 mg/kg treatment group (10 mg/kg), […], TJ0113 30 mg/kg treatment group (30 mg/kg). There were 10 mice in each group, and the administration treatment was administered by gavage, the normal and model control groups were given vehicle treatment, the vehicle was 0.5% CMC-Na, the positive drug fluoxetine hydrochloride was solubilized in saline and administered at a dose of 30 mg/kg, and the TJ0113 vehicle was 0.5% CMC-Na, and administered at a dose of 10 mg/kg and 30 mg/kg, respectively. 4 weeks after the end of the administration, behavioral tests were performed.
• (1) Adaptive feeding: Adaptive feeding with 1% sucrose water and plain water for 2 d before the start of the test, at 1 d, interchanging the sugar water and plain water to avoid positional differences for the animals, and fasting food and water for 1 d after adaption; • (2) Formal test: after fasting food and water, 1% sucrose water and plain water were given to the animals (the initial mass of sugar water and plain water is known), and weighing the remaining mass of sugar water/plain water of each animal after 24 h, and calculating the consumption rates of sugar water A and plain water B; • (3) Data analysis: sugar water preference rate=(A/A+B)×100%.
• (1) adapting to the environment: placing the animals in the test environment for 60 min to adapt to the environment before the test; • (2) Formal test: fixing the rear 1/3 of the mouse tail with tape and suspending on the stand of the experimental apparatus, with the head 15 cm from the bottom; • (3) starting timing camera, and stopping after 6 min, and recording the immobility time of the mice within 4 min; • (4) At the end of the test, using 75% alcohol to wipe the bottom and inner wall of the chamber.
• (1) adapting to the environment: placing the animals in the test environment for 60 min to adapt to the environment before the test; • (2) Formal test: placing the animals to be tested in the middle of the open field, and using the ANY-Maze software to collect the data, the test time is 10 min, and the feces and urine must be removed at the end of each round and disinfected and wiped dry with 75% alcohol; • (3) Analysis of results: total moved distance and average speed during the activity, time spent in the center area and time spent in the corner area.

[3] = In vitro liver microsomal stability test; conditions: microsomes
Description: Ketanserin was selected as the reference compound. The specific method was as follows:
0.1 M K3PO4 (pH 7.4) buffer and 3×NADPH stock solution (6 mM, 5 mg/mL) were configured and preheated in a 37° C. water bath; configuration of the test compounds and the control compounds (spiking solution): adding 5 μL of the compound stock solution ([…]) into 95 μL of acetonitrile; configuration of 1.5 μM spiking solution in microsomes (0.75 mg/mL): adding 1.5 μL of spiking solution and 18.75 μL of liver microsomal solution (20 mg/mL) into 479.75 μL of K3PO4 buffer; adding 30 μL of spiking solution in microsomes into the multiwell plate, and incubating at 37° C. for 5 min; adding 15 μL of NADPH storage solution into each well to start to react, and timing; adding 150 μL of acetonitrile solution containing IS at 0 min, 5 min, 15 min, 30 min, and 45 min, respectively, stopping the reaction; oscillating for 10 min, and then centrifuging at 6,000 rpm for 15 min; taking 80 μL of supernatant from each well for LC/MS detection, and calculating T1/2.

[4] = system: HGPS-MSC; test: Senescence of HGPS patient derived mesenchymal stem cells; assay type: cell-based, human; conditions: 10 μM
Description: Mesenchymal stem cells HGPS-MSC differentiated from pluripotent stem cells (iPSC) of patients with Hutchinson-Gilford Progeria Syndrome (HGPS) were taken for culture, and the experiment was divided into three groups, namely, young cells cultured for 7 generations, labeled as Con-Y; senescent cells cultured for 12 generations, labeled as Con-O; and the administration group to which 10 μM of TJ01-013 was added during the process of culture, similarly cultured up to the 12th generation, labeled as Con-O+TJ01-013; the drug administration group to which 10 μM positive drug Ionafarnib was added during the process of culture, similarly cultured up to the 12th generation, and labeled as Con-O+ Ionafarnib; after the end of the treatment, all the cells were placed under the microscope to observe the morphology of the cells, and the proportion of SA-β-gal+ cells was counted. The levels of DNA damage marker γ-H2AX and heterochromatin modification H3K9me3 after TJ01-013 treatment and Ionafarnib treatment were detected by immunofluorescence technique (the specific procedure was described previously).

[5] = system: LPS-induced acute lung injury mice; test: LPS-induced acute lung injury; assay type: in vivo, C57BL/6J mice
Description: Male mice C57BL/6J aged 6-8 weeks and weighing 18-22 g were selected for the study. After fixing the mice, 50 μl of PBS was injected into the airways of the mice under direct laryngoscopic vision to form a control group, and 5 mg/kg of LPS (E.coil) was dissolved in 50 μl of PBS and dripped to form a model group. The experiments were divided into […], each having 6 mice, namely, NS group (control group, airway drip of 50 μl PBS), LPS group (model control group, airway drip of 50 μl LPS), LPS+10 mg/kg group (airway drip of 50 μl LPS and given 10 mg/kg TJ01-013 treatment), LPS+20 mg/kg group (airway drip of 50 μl LPS and given 20 mg/kg TJ01-013 treatment), LPS+30 mg/kg group (airway drip of 50 μl LPS and given 30 mg/kg TJ01-013 treatment), LPS+Sivelestat group (Positive control group, airway drip of 50 μl LPS and given 5 mg/kg Sivelestat treatment). All groups were administered […] by intraperitoneal injection in a volume of 200 μl 1 h and 7 h after airway drip, and the mice were euthanized 24 h later, bronchoalveolar lavage fluid (BALF) was taken, and the levels of inflammatory factors in the bronchoalveolar lavage fluid were detected and the changes in the transcriptional levels of tissue-associated inflammatory factors were observed. • (2) taking and observing of Bronchoalveolar lavage fluid (BALF)
Use chloral hydrate intraperitoneal injection to make mice die of rapid overdose anesthesia, place mice in supine position on the dissection table, fix the limbs, disinfect the skin of the neck of the mice with 75% ethanol, incise the skin along the midline of the neck, bluntly separate the subcutaneous connective tissues and muscles with hemostatic forceps, expose the trachea, separate connective tissues on both sides of the trachea and between the trachea and the esophagus, and free the trachea. Two surgical sutures about 20 cm long were threaded between the trachea and esophagus. A 24G intravenous cannula needle was inserted at a 30-degree angle from the connective tissue membrane between the thyroid cartilage and the cricoid cartilage, and the intravenous cannula needle was delivered in the direction of the tracheal eminence. A surgical suture placed between the tracheo-esophageal was ligated at the entry of the cannula into the trachea and at the distal end of the cannula, respectively, and tied as tightly as possible to secure the cannula and trachea. 0.8 ml of PBS was aspirated with a 1 ml syringe, and the syringe was connected to the inlet end of the intravenous cannula needle, and PBS was slowly injected into the trachea, stayed for 30 seconds and then was withdrawn back, and a milky white frothy liquid withdrawn back was visible, and the lavage was repeated three times, and the liquid was centrifuged at 1500 rpm/min for 10 min, and the supernatant was used for cytokine assay, and the cell precipitates were coated after resuspending with PBS for Giemsa staining and sorting and counting.
The levels of inflammatory factors (inflammatory factors including IL-6, CXCL1, CXCL2, etc.) in BALF supernatant were detected according to the instructions of the ELISA test kit.
The obtained cDNA was amplified on a 96-well PCR plate using a LightCycler 480 system, and the gene level was determined by using glyceraldehyde 3-phosphate dehydrogenase (GAPDH) as an internal standard.

[6] = system: LPS-induced sepsis in mice; test: LPS-induced sepsis survival; assay type: in vivo, C57 mice; conditions: 8th day; 10 mg/kg intraperitoneal once a day; LPS alone about 20%; FIG. 33
Description: A constructed preclinical sepsis model is a LPS-induced sepsis in mice. Injection of purified LPS into mice by intraperitoneal route or intravenous route can lead to activation of the innate immune system and simulate fulminant Gram-negative bacterial infections, the specific modeling method is as follows: 20-25 g C57 mice were selected, and 20 mg/kg LPS was injected intraperitoneally according to the body weight (the LPS was dissolved with PBS), and the experiment was divided into three groups, a model control group (LPS), a positive control treatment group (prednisone, 10 mg/kg), TJ01-013 treatment group (TJ01-013, 10 mg/kg), the mode of administration was intraperitoneal injection, the volume of administration was 5 ml/kg, the frequency of administration was once a day, and the biological deaths and changes in body weights of the mice were observed and recorded every day, and the mice were regarded as physiologically dead if their body weights decreased by 20% or more compared with that before the administration of LPS. Survival curves were plotted based on deaths observed up to 8 days after administration.

[7] = TJ01-013 10, 20, 30 mg/kg, Sivelestat 5 mg/kg, FIG. 26
[8] = concentration-dependent for TJ01-013, FIG. 27

SMILES: CC(C)(C)NC(=O)[C@H]1CC[C@H]2[C@@H]3CC[C@H]4NC(=O)C=C[C@]4(C)[C@H]3CC[C@]12C [Finasteride]
- prostate weight ([1]; oral gavage daily to day 30, FIG. 34): reduced
- organ coefficient of prostate ([1]; oral gavage daily, FIG. 35): reduced the organ coefficient of prostate, but there was no significant difference
- weight of urethra and bladder ([1]; oral gavage daily, FIG. 36): tendency of decreasing its weight

SMILES: CNCCC(Oc1ccc(C(F)(F)F)cc1)c1ccccc1 (stereo not shown) [Fluoxetine, reference compound]
- average movement speed, open field ([2]; TJ0113 10 mg/kg and 30 mg/kg, FIG. 61): significantly increased
- sugar water preference ([2]; TJ0113 30 mg/kg, gavage, FIG. 57): significantly increased
- time in despair (immobility), tail-hanging experiment ([2]; TJ0113 30 mg/kg, FIG. 58): significantly decreased
- distance moved, open field ([2]; TJ0113 30 mg/kg, FIG. 59): significantly increased
- time in the edge area of the open field ([2]; TJ0113 30 mg/kg, FIG. 60): significantly decreased

SMILES: CN(c1cc([S+]([O-])CC(=O)O)c(O)c2ccccc12)S(=O)(=O)c1ccc(Br)cc1 (stereo not shown) [I-2]
- liver microsomal stability (elimination half-life T1/2) [3]: superior liver microsomal stability

SMILES: NC(=O)N1CCC(CC(=O)N2CCC([C@H]3c4ncc(Br)cc4CCc4cc(Cl)cc(Br)c43)CC2)CC1 [Ionafarnib, reference compound]
- percentage of SA-β-gal+ cells ([4]; 12th generation, vs Con-O, FIG. 54): significantly decreased
- level of DNA damage marker γ-H2AX ([4]; FIG. 55): significantly reduced
- expression level of heterochromatin-modified H3K9me3 ([4]; FIG. 56): restored its expression level to some extent

SMILES: CC(C)(C)C(=O)Oc1ccc(S(=O)(=O)Nc2ccccc2C(=O)NCC(=O)O)cc1 [Sivelestat, reference compound]
- CXCL1 level in alveolar lavage fluid (ELISA) [5, 7]: significantly decreased
- CXCL2 level in alveolar lavage fluid (ELISA) [5, 7]: no significant effect
- IL-6 level in alveolar lavage fluid (ELISA) [5, 7]: no significant effect
- CXCL1 transcript level in lung tissue [5, 8]: significantly decreased
- CXCL2 transcript level in lung tissue [5, 8]: no significant effect
- IL-6 transcript level in lung tissue [5, 8]: no significant effect

SMILES: C[C@]12C=CC(=O)C=C1CC[C@@H]1[C@@H]2C(=O)C[C@@]2(C)[C@H]1CC[C@]2(O)C(=O)CO [prednisone, reference compound]
- survival rate [6]: 100%
